Data taken from patent publication US20080287396A1, “Phosphonated Fluoroquinolones, Antibacterial Analogs Thereof, and Methods for the Prevention and Treatment of Bone and Joint Infections” (TARGANTA THERAPEUTICA INC., priority 2005, published 2008).
Entries after “also recorded” stand apart in the source; their conditions may differ.

Legend:
[1] = Bone powder binding, fluorometric detection; conditions: 1 mg/ml compound, bone meal powder 10 mg/ml in PBS, 37° C., 1 h
Procedure, shortened: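 LC/MS method: 100 μM compound in 0.1 M Tris-HCl pH 7, 0.15 M NaCl shaken 10 min with or without ground rat tibia, centrifuged, unbound compound measured in supernatant. Fluorometric method: 1 mg/ml compound in 10 mg/ml bone meal/PBS, 1 h at 37 °C, pellet washed. Supernatant fluoroquinolone read at 280/465 nm; bound amount taken as input minus recovered.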

[2] = Regeneration of drug from bone powder-bound prodrug; type: in vitro ADME; conditions: PBS vs serum
[3] = test system: S. aureus ATCC 13709; assay: Prophylactic model of bone infection in rats; type: in vivo, rat; conditions: for prophylactic effect in rat model of bone infection, in words: Table 4 and FIGS. 6-8, doses as in Table 4
Procedure, shortened: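 Female CD rats (n=5/group) given intra-tibial 5% sodium morrhuate then S. aureus (ca. 5×10^5 CFU/rat), hole sealed with dental cement. Prodrugs given as single IV bolus in 0.9% saline at various times before infection; parent at molar equivalent dose. Tibiae harvested 24 h postinfection; Log CFU/g bone, detection limit 2 Log CFU/g.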

Structure (SMILES)	Binding to bone (%) Fluorescence [1] [%]	effect of the medium (presence or absence of serum) on regeneration rate [2]	bacterial titer compared with untreated group ([3]; 17.3 mg/Kg IV 48 h prior to infection (FIG. 8))	Measured bacterial titer (Log CFU/g of bone) Test compound ([3]; 20 mg/kg IV, 3 days prior to infection)	prophylactic effect in rat model of bone infection, in words [3]	bacterial titer compared with untreated group ([3]; 15.8 mg/kg IV 5, 10, 15 and 20 days before infection (FIG. 6))	Measured bacterial titer (Log CFU/g of bone) Test compound ([3]; 15.8 mg/kg IV, 2 days prior to infection, 24 h postinfection)	bacterial titer compared with untreated group ([3]; 32 mg/kg IV 7, 14, 21 and 28 days prior to infection (FIG. 7))
COc1c(N2CCNC(C)C2)c(F)cc2c(=O)c(C(=O)OCC(=O)NC(P(=O)(O)O)P(=O)(O)O)cn(C3CC3)c12 (centres unmarked) [Compound 54, (1,1-Bisphosphonomethylcarbamoyl)methyl 7-(3-methylpiperazin-1-yl)-1-cyclopropyl-6-fluoro-1,4-dihydro-8-methoxy-4-oxoquinoline-3-carboxylate]	91	rate deceleration	significant (p-value ≦0.0002) decrease in bacterial titer; also recorded: nearly sterile bone	2.96 ± 0.69 Log CFU/g of bone	efficient prophylactic effect			
COc1c(N2C[C@@H]3CCCN[C@@H]3C2)c(F)cc2c(=O)c(C(=O)OCC(=O)NC(P(=O)(O)O)P(=O)(O)O)cn(C3CC3)c12 [Compound 52, (1,1-Bisphosphonomethylcarbamoyl)methyl 1-cyclopropyl-6-fluoro-1,4-dihydro-7-((4aS,7aS)-octahydropyrrolo[3,4-b]pyridin-6-yl)-8-methoxy-4-oxoquinoline-3-carboxylate]	98.7	fairly similar rates			efficient prophylactic effect	significant (p<0.05) decrease in bacterial titer	2.29 ± 0.30 Log CFU/g of bone	significant decrease in bacterial titer
